Measured values published in ChEMBL document CHEMBL5131384, “Design, synthesis, and biological evaluation of indole-based hydroxamic acid derivatives as histone deacetylase inhibitors” (Eur J Med Chem, 2022).
Active and inactive are the calls of the source. No cut-off for these calls is given here.

What was measured:
HL-60 = test: Antiproliferative activity against human HL-60 cells assessed as reduction in cell viability incubated for 72 hrs by WST-8 assay; format: functional, cell-based; settings: HL-60, 72 h
HCT-116 [1] = test: Induction of apoptosis in human HCT-116 cells assessed as late apoptotic cells at 0.1 uM incubated for 48 hrs by Annexin V-FITC/propidium iodide staining-based flow cytometric analysis (reference value: 5.80 %); format: functional
Mus musculus [2] = test: In vivo inhibition of HDAC in HCT-116 cells xenografted in BALB/c mouse assessed as upregulation of alpha tubulin expression at 20 to 40 mg/kg, ip for 15 days by Western blot analysis; format: functional, organism-based; settings: dose 20-40 mg/kg, time 15.0 day, DDE = dose-dependent effect
HCT-116 [3] = test: Antitumor activity against human HCT-116 cells xenografted in BALB/c mouse assessed as inhibition of tumor growth at 40 mg/kg, ip adminstered once daily measured every three days for 15 days by vernier caliper method relative to control; format: functional; set-up: scale not given: the % may be the effect or the level left; settings: time 15 day
[4] = target: T1, Protein deacetylase HDAC6 (Homo sapiens, UniProt Q9UBN7); test: Inhibition of HDAC6 (unknown origin) using Boc-Lys(Ac)-AMC as substrate incubated for 60 mins by fluorescence plate reader assay
T1 sequence (Q9UBN7 whole entry): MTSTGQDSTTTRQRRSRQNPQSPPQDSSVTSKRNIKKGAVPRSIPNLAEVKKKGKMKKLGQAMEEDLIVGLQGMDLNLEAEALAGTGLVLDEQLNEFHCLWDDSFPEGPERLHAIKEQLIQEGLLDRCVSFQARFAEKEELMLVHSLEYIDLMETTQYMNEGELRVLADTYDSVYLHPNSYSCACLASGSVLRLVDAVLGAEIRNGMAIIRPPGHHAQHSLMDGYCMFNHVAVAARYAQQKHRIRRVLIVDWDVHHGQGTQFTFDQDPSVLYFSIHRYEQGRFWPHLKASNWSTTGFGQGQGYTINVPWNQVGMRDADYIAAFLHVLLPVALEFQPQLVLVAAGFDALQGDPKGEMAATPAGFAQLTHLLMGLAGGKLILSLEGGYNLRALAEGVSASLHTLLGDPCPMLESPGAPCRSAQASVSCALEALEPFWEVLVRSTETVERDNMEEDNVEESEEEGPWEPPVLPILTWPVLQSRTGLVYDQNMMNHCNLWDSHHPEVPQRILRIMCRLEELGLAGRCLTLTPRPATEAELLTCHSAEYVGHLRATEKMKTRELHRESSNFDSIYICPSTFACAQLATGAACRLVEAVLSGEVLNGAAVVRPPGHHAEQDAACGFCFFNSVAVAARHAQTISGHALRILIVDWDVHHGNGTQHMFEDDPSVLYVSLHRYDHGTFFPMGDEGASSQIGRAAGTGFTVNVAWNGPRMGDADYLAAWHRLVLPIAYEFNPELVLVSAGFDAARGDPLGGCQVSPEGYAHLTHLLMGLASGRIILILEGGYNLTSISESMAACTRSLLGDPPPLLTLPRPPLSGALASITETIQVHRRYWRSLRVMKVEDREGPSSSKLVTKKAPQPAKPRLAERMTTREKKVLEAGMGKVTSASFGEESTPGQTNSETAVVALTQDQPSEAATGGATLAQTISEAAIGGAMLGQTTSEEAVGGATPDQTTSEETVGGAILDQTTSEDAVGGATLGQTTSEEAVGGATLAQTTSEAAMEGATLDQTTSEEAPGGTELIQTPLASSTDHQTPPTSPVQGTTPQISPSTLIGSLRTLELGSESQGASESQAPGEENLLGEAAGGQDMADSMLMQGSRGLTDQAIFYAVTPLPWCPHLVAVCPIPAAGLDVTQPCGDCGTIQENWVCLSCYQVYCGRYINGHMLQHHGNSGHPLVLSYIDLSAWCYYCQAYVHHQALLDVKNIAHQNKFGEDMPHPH

HCT-116 [5] = test: Induction of apoptosis in human HCT-116 cells assessed as increase in cleaved PARP level at 0.1 to 1 uM incubated for 48 hrs by Western blot analysis; format: functional, cell-based; settings: dose 0.1-1 µM
HCT-116 [6] = test: Antitumor activity against human HCT-116 cells xenografted in BALB/c mouse assessed as inhibition of tumor growth at 20 mg/kg, ip adminstered once daily measured every three days for 15 days by vernier caliper method relative to control; format: functional; set-up: scale not given: the % may be the effect or the level left; settings: time 15 day
[7] = Toxicity in BALB/c mouse assessed as body weight loss at 20 to 40 mg/kg, ip adminstered once daily for 15 days; format: organism-based; settings: in vivo, 360 h, dose 20-40 mg/kg, time 15 day
HCT-116 [8] = test: Inhibition of colony formation in human HCT-116 cells assessed as blockage of anchor growth at 10 nM drug medium changed every three days for 2 weeks by crystal violet staining based analysis; format: functional; settings: HCT-116, 336 h
HCT-116 [9] = test: Antiproliferative activity against human HCT-116 cells assessed as reduction in cell viability incubated for 72 hrs by WST-8 assay; format: functional, cell-based; settings: HCT-116, 72 h
Mus musculus [10] = test: In vivo inhibition of HDAC in BALB/c mouse xenografted with HCT-116 cells assessed as upregulation of acetylated H3 expression at 20 to 40 mg/kg, ip for 15 days by Western blot analysis; format: functional, organism-based; settings: dose 20-40 mg/kg, time 15.0 day, DDE = dose-dependent effect
MDA-MB-231 = test: Antiproliferative activity against human MDA-MB-231 cells assessed as reduction in cell viability incubated for 72 hrs by WST-8 assay; format: functional, cell-based; settings: MDA-MB-231, 72 h
[11] = Toxicity in BALB/c mouse assessed as drug tolerability at 20 to 40 mg/kg, ip adminstered once daily for 15 days; format: organism-based; settings: in vivo, 360 h, dose 20-40 mg/kg, time 15 day
SGC-7901 = test: Antiproliferative activity against human SGC-7901 cells assessed as reduction in cell viability incubated for 72 hrs by WST-8 assay; format: functional, cell-based; settings: SGC-7901, 72 h
HCT-116 [12] = test: Inhibition of colony formation in human HCT-116 cells at 3 to 10 nM drug medium changed every three days for 2 weeks by crystal violet staining based analysis; format: functional, cell-based; settings: dose 3-10 nM, DDE = dose-dependent effect
HCT-116 [13] = test: Induction of cell cycle arrest in human HCT-116 cells assessed as accumulation of cells at G2/M phase at 0.1 to 1 uM incubated for 24 hrs by flow cytometry analysis; format: functional, cell-based; settings: dose 0.1-1 µM, DDE = dose-dependent effect
[14] = target: T2, Histone deacetylase (Homo sapiens) (UniProt Q13547+O15379+Q9UBN7+Q92769+Q9UQL6+Q8WUI4+Q9BY41+Q96DB2+P56524+Q9UKV0+Q969S8); test: Inhibition of HDAC in human HCT-116 cells assessed as upregulation of acetylated H3 level at 0.1 to 1 uM incubated for 48 hrs by Western blot analysis; format: cell-based; settings: dose 0.1-1 µM, DDE = dose-dependent effect
[15] = target: T2, Histone deacetylase (Homo sapiens); test: Inhibition of HDAC in human HCT-116 cells assessed as upregulation of acetylated alpha-tubulin level 0.1 to 1 uM incubated for 48 hrs by Western blot analysis; format: cell-based; settings: dose 0.1-1 µM, DDE = dose-dependent effect
HCT-116 [16] = test: Inhibition of colony formation in human HCT-116 cells assessed as reduction in number of colonies at 3 nM drug medium changed every three days for 2 weeks by crystal violet staining based analysis; format: functional, cell-based
A549 = test: Antiproliferative activity against human A549 cells assessed as reduction in cell viability incubated for 72 hrs by WST-8 assay; format: functional, cell-based; settings: A549, 72 h
HCT-116 [17] = test: Induction of apoptosis in human HCT-116 cells assessed as early apoptotic cells at 1 uM incubated for 48 hrs by Annexin V-FITC/propidium iodide staining-based flow cytometric analysis (reference value: 1.73 %); format: functional
Histone deacetylase 1 = Histone deacetylase 1 (Homo sapiens, UniProt Q13547); test: Inhibition of HDAC1 (unknown origin) using Boc-Lys(Ac)-AMC as substrate incubated for 60 mins by fluorescence plate reader assay
HCT-116 [18] = test: Inhibition of colony formation in human HCT-116 cells assessed as reduction in size of colonies at 3 nM drug medium changed every three days for 2 weeks by crystal violet staining based analysis; format: functional, cell-based
HCT-116 [19] = test: Induction of apoptosis in human HCT-116 cells assessed as early apoptotic cells at 0.1 uM incubated for 48 hrs by Annexin V-FITC/propidium iodide staining-based flow cytometric analysis (reference value: 1.73 %); format: functional
HCT-116 [20] = test: Induction of apoptosis in human HCT-116 cells assessed as late apoptotic cells at 1 uM incubated for 48 hrs by Annexin V-FITC/propidium iodide staining-based flow cytometric analysis (reference value: 5.80 %); format: functional
HCT-116 [21] = test: Induction of apoptosis in human HCT-116 cells at 0.1 to 1 uM incubated for 48 hrs by Annexin V-FITC/propidium iodide staining-based flow cytometric analysis; format: functional, cell-based; settings: dose 0.1-1 µM, DDE = dose-dependent effect

Sequence of Histone deacetylase 1 (Q13547 whole entry): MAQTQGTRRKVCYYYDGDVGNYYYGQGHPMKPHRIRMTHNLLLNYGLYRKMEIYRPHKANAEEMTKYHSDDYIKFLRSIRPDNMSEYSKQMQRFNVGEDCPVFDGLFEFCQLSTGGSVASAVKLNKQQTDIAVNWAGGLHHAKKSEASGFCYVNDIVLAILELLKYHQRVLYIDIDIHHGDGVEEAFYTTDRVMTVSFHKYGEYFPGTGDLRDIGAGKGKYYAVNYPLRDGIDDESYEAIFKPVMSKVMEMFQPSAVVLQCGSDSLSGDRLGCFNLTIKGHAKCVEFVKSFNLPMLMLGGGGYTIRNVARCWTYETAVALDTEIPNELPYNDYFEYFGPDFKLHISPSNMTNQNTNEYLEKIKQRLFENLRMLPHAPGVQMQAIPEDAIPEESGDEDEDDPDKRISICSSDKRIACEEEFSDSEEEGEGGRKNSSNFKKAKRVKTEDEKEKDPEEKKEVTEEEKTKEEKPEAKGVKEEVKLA

COc1ccc2c(c1)cc(C(=O)NC1C3CC4CC(C3)CC1C4)n2CCCCCCC(=O)NO (stereo unspecified)
IC50 (HL-60): 20 nM | Activity (HCT-116 [1]): 29.9% | Activity (Mus musculus [2]): Dde | Activity (HCT-116 [3]): 71.79% | IC50 [4]: 2.3 nM | Activity (HCT-116 [5]): Active | Activity (HCT-116 [6]): 44.54% | Activity [7]: Non-Toxic | inhibition at 0.01 µM (HCT-116 [8]): 100% | IC50 (HCT-116 [9]): 140 nM | Activity (Mus musculus [10]): Dde | IC50 (MDA-MB-231): 460 nM | Activity [11]: Non-Toxic | IC50 (SGC-7901): 40 nM | inhibition (HCT-116 [12]): Dde | Activity (HCT-116 [13]): Dde | Activity [14]: Dde | Activity [15]: Dde | inhibition (HCT-116 [16]): Active | IC50 (A549): 960 nM | Activity (HCT-116 [17]): 3.34% | IC50 (Histone deacetylase 1): 1.16 nM | inhibition (HCT-116 [18]): Active | Activity (HCT-116 [19]): 2.59% | Activity (HCT-116 [20]): 48.8% | Activity (HCT-116 [21]): Dde
